Literature values as cited in patent publication US9572894B2, “Biodegradable particulate formulations” (The University of Iowa Research Foundation, priority 2010, dated 2017).

Tested on: gliomas
Details: ten daily i.t. injections

COc1cccc2c1C(=O)c1c(O)c3c(c(O)c1C2=O)C[C@@](O)(C(=O)CO)C[C@@H]3O[C@H]1C[C@H](N)[C@H](O)[C@H](C)O1 [doxorubicin]
reported toxicity: limited to headache | subjects with local regression: six of the ten
